This data set in a line: Thermal stability note in synthesis of Example 2. It is filed as physicochemical. Particulars: observation on isolated title compound. The method, then:
To a solution of Intermediate 27 (42 mg, 0.068 mmol) in N,N-dimethylformamide (1.5 mL) a solution of formic hydrazide (14 mg, 0.229 mmol) in N,N-dimethylformamide (0.3 mL) followed by mercury(II) chloride (62 mg, 0.229 mmol) were introduced. After 5 minutes stirring at room temperature under an atmosphere of nitrogen, a solution of triethylamine (23 mg, 0.229 mmol) in N,N-dimethylformamide (0.2 mL) was introduced and the reaction warmed to 80° C. for 1.7 hours. After cooling to room temperature, the reaction mixture was diluted with dichloromethane (10 mL), kieselguhr (1.0 g) was introduced, and the suspension stirred for 10 minutes. The suspension was then filtered and the filter-cake washed with dichloromethane (10 mL). Evaporation of the combined filtrates in-vacuo furnished a residue which was purified by low pH preparative liquid chromatography to furnish the title compound (2.3 mg at 88% purity LCMS-UV215, 5% yield) as a colourless solid. LCMS [m+H]^+ 553, RT 2.07 min (Method 3).

Consider `Cc1cc(Nc2nncn2C2CCc3cc4cnc(C5CC5)cc4c(S(=O)(=O)NCC(C)(C)F)c3C2)n(C)n1` (stereo not shown) [Example 2, 3-cyclopropyl-7-[3-[(2,5-dimethylpyrazol-3-yl)amino]-1,2,4-triazol-4-yl]-N-(2-fluoro-2-methylpropyl)-6,7,8,9-tetrahydrobenzo[g]isoquinoline-5-sulfonamide], for which the thermal stability result was “thermally unstable”.

Source of the values: patent US12410161B2, “Tetrahydrobenzo-quinoline sulfonamides derivative compounds” (UCB Biopharma SRL, priority 2019, dated 2025).
